Test system: PKC
Experiment: Fluorescence properties of fim-1 with liposomes, purified PKC and erythrocytes
Assay type: biochemical
Conditions: fim-1 500 nM, Ex 485 nm
Method: Liposomes prepared from lipidic extracts of brain and a commercial preparation of purified a PKC are used, then erythrocytes are added.
This preparation is incubated for 20 minutes at ambient temperature, in the presence of fim-1 (500 nM) in a PBS buffer (150 mM NaCl, 10 mM NaHPO4, 5 mM D-glucose, 500 μm CaCl2, pH 7.4.
After washing, centrifugation and resuspension in PBS 1/150, the fluorescence emission spectrum is recorded between […], with an excitation wavelength of 485 nm.
The spectrum obtained is standardized relative to the fluorescence intensity measured with the probe alone, then broken down into the 3 elementary gaussian distributions represented in FIG. 1. An emission maximum is noted at 518, 535 and 586 nm respectively. The interactions between fim-1 and the membrane lipids as well as the PKC is expressed by a slight shift of the spectrum between […] for the lipids and an increase in fluorescence between 510 and 530 nm, and beyond 570 nm for the PKC.

`CCCCCCCCCCCCCC(=O)O[C@@H]1[C@@H](C)[C@@]2(O)[C@@H](C=C(CO)C[C@]3(O)C(=O)C(C)=C[C@@H]23)[C@@H]2C(C)(C)[C@]12OC(C)=O` [phorbol ester, phorbol myristate acetate] was tested, and the “increase of quantal yield of fim-1 fluorescence (factor)” value (in the presence of activator) was 5000.

`CN[C@@H]1C[C@H]2O[C@@](C)([C@@H]1OC)n1c3ccccc3c3c4c(c5c6ccccc6n2c5c31)C(=O)NC4` [staurosporine] was tested, and the “effect on fluorescence intensity of fim-1” value (addition of inhibitor) was “inhibition in the fluorescence intensity”.

— patent US6703212B1, “Methods and kits for diagnosing Alzheimer's disease from a blood sample” (priority 1997, dated 2004)
